Measurements reported in patent US20240158446A1, “CYCLIC COMPOUND HAVING SELECTIVE INHIBITORY ACTION ON KRAS OVER HRAS AND NRAS” (CHUGAI SEIYAKU KABUSHIKI KAISHA, priority 2021, published 2024).
Where two headings read alike, the source gives them in different places. *1 amine or outer side, *2 acyl side, *3 side chain or, on linkers, in order; H or OH if unused. Where a SMILES comes first, the peptide text is derived from it. Bridges are numbered along the chain shown (N, C = ends). [ ]: non-standard residue; d: D form. The star is where a group is joined. hPhe(3,5-F2-4-CF3) = N[C@@H](CCc1cc(F)c(C(F)(F)F)c(F)c1)C(=O)O; hPhe(3-Cl-4-CF3) = N[C@@H](CCc1ccc(C(F)(F)F)c(Cl)c1)C(=O)O; NPrPhe(4-CF3) = CCCN[C@@H](Cc1ccc(C(F)(F)F)cc1)C(=O)O; X10 = C=CCN([C@@H](Cc1ccc(C)cc1)C(=O)[*:2])[*:1]; NMeGly(cPent) = CN[C@H](C(=O)O)C1CCCC1; Pro(4,4-F2) = O=C(O)[C@@H]1CC(F)(F)CN1; NMeAllylGly = C=CC[C@H](NC)C(=O)O; αMeI = CC[C@H](C)[C@](C)(N)C(=O)O; NMeD = CN[C@@H](CC(=O)O)C(=O)O; NMeL = CN[C@@H](CC(C)C)C(=O)O; Azetidin(1-yl) = C1CN(*)C1; Morpholide = C1CN(*)CCO1; NMeA = CN[C@@H](C)C(=O)O; Ac5c = NC1(C(=O)O)CCCC1; Aze = O=C(O)[C@@H]1CCN1; Sar = CNCC(=O)O

Assays:
[1] = molecular target: GDP-bound KRAS wild-type protein (Homo sapiens, UniProt P01116); test: Binding to KRAS by surface plasmon resonance (SPR), Single Cycle Kinetics; conditions: GDP-bound KRAS wild-type protein, read-out: KRAS KD
Sequence of GDP-bound KRAS wild-type protein (P01116 whole entry): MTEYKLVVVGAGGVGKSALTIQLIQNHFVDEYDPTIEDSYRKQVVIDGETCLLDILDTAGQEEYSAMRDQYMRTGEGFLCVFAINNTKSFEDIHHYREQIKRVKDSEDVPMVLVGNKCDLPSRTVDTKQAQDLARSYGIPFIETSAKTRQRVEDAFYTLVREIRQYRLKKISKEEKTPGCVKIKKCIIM

[2] = molecular target: GDP-bound HRAS wild-type protein (Homo sapiens, UniProt P01112); test: Binding to HRAS by surface plasmon resonance (SPR), Single Cycle Kinetics; conditions: for HRAS/KRAS (ratio of KD value for HRAS to KD value for KRAS) / HRAS/KRAS (ratio of KD value with respect to HRAS to KD value with respect to KRAS): SPR, GDP-bound HRAS wild-type protein vs GDP-bound KRAS wild-type protein
Sequence of GDP-bound HRAS wild-type protein (P01112 whole entry): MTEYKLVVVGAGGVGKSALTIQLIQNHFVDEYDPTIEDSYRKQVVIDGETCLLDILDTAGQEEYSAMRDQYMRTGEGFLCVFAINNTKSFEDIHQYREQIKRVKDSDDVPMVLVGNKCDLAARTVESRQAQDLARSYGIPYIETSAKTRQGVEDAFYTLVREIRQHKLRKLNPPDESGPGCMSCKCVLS

[3] = molecular target: GDP-bound NRAS wild-type protein (Homo sapiens, UniProt P01111); test: Binding to NRAS by surface plasmon resonance (SPR), Single Cycle Kinetics; conditions: for NRAS/KRAS (ratio of KD value for NRAS to KD value for KRAS) / NRAS/KRAS (ratio of KD value with respect to NRAS to KD value with respect to KRAS): SPR, GDP-bound NRAS wild-type protein vs GDP-bound KRAS wild-type protein
Sequence of GDP-bound NRAS wild-type protein (P01111 whole entry): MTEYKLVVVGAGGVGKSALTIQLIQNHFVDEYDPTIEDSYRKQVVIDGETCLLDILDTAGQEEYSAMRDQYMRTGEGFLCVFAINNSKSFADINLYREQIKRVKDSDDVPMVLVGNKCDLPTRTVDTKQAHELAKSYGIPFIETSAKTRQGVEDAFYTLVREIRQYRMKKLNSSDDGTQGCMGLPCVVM

[4] = SPR Single Cycle Kinetics, 1:1 binding model

| Compound | Kd [1, 4] [nM] | HRAS/KRAS (ratio of KD value for HRAS to KD value for KRAS) [2] | NRAS/KRAS (ratio of KD value for NRAS to KD value for KRAS) [3] | HRAS/KRAS (ratio of KD value with respect to HRAS to KD value with respect to KRAS) [2] | NRAS/KRAS (ratio of KD value with respect to NRAS to KD value with respect to KRAS) [3] | Kd ([1]; SPR, Single Cycle Kinetics) [nM] | HRAS/KRAS (ratio of KD value with respect to GDP-bound HRAS wild-type protein to KD value with respect to KRAS) ([2]; SPR KD ratio HRAS/KRAS, class symbols) | NRAS/KRAS (ratio of KD value with respect to GDP-bound NRAS wild-type protein to KD value with respect to KRAS) ([3]; SPR KD ratio NRAS/KRAS, class symbols) |
| --- | --- | --- | --- | --- | --- | --- | --- | --- |
| CCCN1C(=O)CN(C)C(=O)[C@@H]2CCN2C(=O)[C@H]([C@@H](C)CC)NC(=O)[C@H](CC(C)C)N(C)C(=O)C[C@@H](C(=O)N(C)C)NC(=O)[C@H](C2CCCC2)N(C)C(=O)C2(CCCC2)NC(=O)[C@@H]2CC(F)(F)CN2C(=O)[C@H](CCc2ccc(C(F)(F)F)c(Cl)c2)NC(=O)CN(C)C(=O)[C@@H]1Cc1ccc(C(F)(F)F)cc1 [PP0375] ([NMeL]I[Aze][Sar][NPrPhe(4-CF3)][Sar][hPhe(3-Cl-4-CF3)][Pro(4,4-F2)][Ac5c][NMeGly(cPent)]D-NMe2; lactam N-11) | 2.3 | B (a compound having 3 or more and less than 10 is denoted as B) | B (a compound having 3 or more and less than 10 is denoted as B) |  |  |  |  |  |
| CC[C@H](C)[C@@H]1NC(=O)[C@H](CC)N(C)C(=O)C[C@@H](C(=O)N(C)C)N(CC)C(=O)[C@H](C2CCCC2)N(C)C(=O)C2(CCC2)NC(=O)[C@@H]2C[C@@H](N3CCC(F)(F)CC3)CN2C(=O)[C@H](CCc2cc(F)c(C(F)(F)F)c(F)c2)NC(=O)CN(C)C(=O)[C@H](Cc2ccc(C(F)(F)F)cc2)N2CCCC[C@@H](C2=O)N(C)C(=O)CN(C)C1=O [PP0733] | 0.77 |  |  | B (a compound having 3 or more and less than 10 is denoted as B) | B (a compound having 3 or more and less than 10 is denoted as B) |  |  |  |
| CCCN1C(=O)[C@@H]2CCN2C(=O)[C@H](C)N(C)C(=O)[C@H]([C@@H](C)CC)NC(=O)[C@H](CC(C)C)N(C)C(=O)C[C@@H](C(=O)N2CCC2)N(C)C(=O)[C@H](C2CCCC2)N(C)C(=O)C2(CCCC2)NC(=O)[C@@H]2CCCN2C(=O)[C@H](CCc2ccc(C(F)(F)F)c(Cl)c2)NC(=O)CN(C)C(=O)[C@@H]1Cc1ccc(C(F)(F)F)cc1 [PP0181] ([NMeL]I[NMeA][Aze][NPrPhe(4-CF3)][Sar][hPhe(3-Cl-4-CF3)]P[Ac5c][NMeGly(cPent)][NMeD]-{Azetidin(1-yl)}; lactam N-11) | 0.081 | B (a compound having 3 or more and less than 10 is denoted as B) | C (A compound having a KD ratio of 0.1 or more and less than 3 is denoted as C) |  |  |  |  |  |
| CCCN1C(=O)CN(C)C(=O)CN(C)C(=O)[C@H]([C@@H](C)CC)NC(=O)[C@H](CC(C)C)N(C)C(=O)C[C@@H](C(=O)N2CCOCC2)N(C)C(=O)[C@H](C2CCCC2)N(C)C(=O)[C@](C)([C@@H](C)CC)NC(=O)[C@@H]2CCCN2C(=O)[C@H](CCc2cc(F)c(C(F)(F)F)c(F)c2)NC(=O)CN(C)C(=O)[C@@H]1Cc1ccc(C(F)(F)F)cc1 [PP0757] ([NMeL]I[Sar][Sar][NPrPhe(4-CF3)][Sar][hPhe(3,5-F2-4-CF3)]P[αMeI][NMeGly(cPent)][NMeD]-Morpholide; lactam N-11) | 4 |  |  | C (A compound having a KD ratio of 0.1 or more and less than 3 is denoted as C) | B (a compound having 3 or more and less than 10 is denoted as B) |  |  |  |
| CCCN1C(=O)[C@@H]2CCN2C(=O)[C@H](C)N(C)C(=O)[C@H]([C@@H](C)CC)NC(=O)[C@H](CC(C)C)N(C)C(=O)C[C@@H](C(=O)N(C)C)NC(=O)[C@H](C2CCCC2)N(C)C(=O)C2(CCCC2)NC(=O)[C@@H]2CC(F)(F)CN2C(=O)[C@H](CCc2ccc(C(F)(F)F)c(Cl)c2)NC(=O)CN(C)C(=O)[C@@H]1Cc1ccc(C(F)(F)F)cc1 [PP0381] ([NMeL]I[NMeA][Aze][NPrPhe(4-CF3)][Sar][hPhe(3-Cl-4-CF3)][Pro(4,4-F2)][Ac5c][NMeGly(cPent)]D-NMe2; lactam N-11) | 0.49 | B (a compound having 3 or more and less than 10 is denoted as B) | C (A compound having a KD ratio of 0.1 or more and less than 3 is denoted as C) |  |  |  |  |  |
| CCCN1C(=O)CN(C)C(=O)CN(C)C(=O)[C@H]([C@@H](C)CC)NC(=O)[C@H](CC(C)C)N(C)C(=O)C[C@@H](C(=O)N2CCOCC2)N(C)C(=O)[C@H](C2CCCC2)N(C)C(=O)C2(CCCC2)NC(=O)[C@@H]2CC(F)(F)CN2C(=O)[C@H](CCc2ccc(C(F)(F)F)c(Cl)c2)NC(=O)CN(C)C(=O)[C@@H]1Cc1ccc(C(F)(F)F)cc1 [PP0195] ([NMeL]I[Sar][Sar][NPrPhe(4-CF3)][Sar][hPhe(3-Cl-4-CF3)][Pro(4,4-F2)][Ac5c][NMeGly(cPent)][NMeD]-Morpholide; lactam N-11) | 0.091 | C (A compound having a KD ratio of 0.1 or more and less than 3 is denoted as C) | B (a compound having 3 or more and less than 10 is denoted as B) |  |  |  |  |  |
| CCO[C@@H]1C[C@H]2C(=O)NC3(CCC3)C(=O)N(C)[C@@H](C3CCCC3)C(=O)N(C)[C@H](C(=O)N(C)C)CC(=O)N(C)[C@@H](CC)C(=O)N[C@@H]([C@@H](C)CC)C(=O)N(C)CC(=O)N(C)[C@H]3CCCCCN(C3=O)[C@@H](Cc3ccc(F)cc3C)C(=O)N(C)CC(=O)N[C@@H](CCc3cc(F)c(C(F)(F)F)c(F)c3)C(=O)N2C1 [PP0911] |  | B (a compound having 3 or more and less than 10 is denoted as B) | B (a compound having 3 or more and less than 10 is denoted as B) |  |  | 0.06 |  |  |
| C=CC[C@H]1C(=O)N(CC=C)[C@@H](Cc2ccc(C)cc2)C(=O)N(C)CC(=O)N[C@@H](CCc2ccc(C(F)(F)F)c(Cl)c2)C(=O)N2CCC[C@H]2C(=O)NC2(CCCC2)C(=O)N(C)[C@@H](C2CCCC2)C(=O)N(C)[C@H](C(=O)N2CCOCC2)CC(=O)N(C)[C@@H](CC(C)C)C(=O)N[C@@H]([C@@H](C)CC)C(=O)N(C)CC(=O)N1C [PP0139] ([NMeL]I[Sar][NMeAllylGly][X10][Sar][hPhe(3-Cl-4-CF3)]P[Ac5c][NMeGly(cPent)][NMeD]-Morpholide; lactam N-11) | 230 | C (A compound having a KD ratio of 0.1 or more and less than 3 is denoted as C) | C (A compound having a KD ratio of 0.1 or more and less than 3 is denoted as C) |  |  |  |  |  |
| CCO[C@@H]1C[C@H]2C(=O)NC3(CCC3)C(=O)N(C)[C@@H](C3CCCC3)C(=O)N(C)[C@H](C(=O)N(C)C)CC(=O)N(C)[C@@H](CC)C(=O)N[C@@H]([C@@H](C)CC)C(=O)N[C@@H](C)C(=O)N(C)[C@H]3C/C=C\CCN(C3=O)[C@@H](Cc3ccc(C(F)(F)F)cc3)C(=O)N(C)CC(=O)N[C@@H](CCc3cc(F)c(C(F)(F)F)c(F)c3)C(=O)N2C1 [PP1065] |  | B (a compound having 3 or more and less than 10 is denoted as B) | A (a compound having 10 or more and less than 20 is denoted as A) |  |  | 0.45 |  |  |
| CCC[C@H]1C(=O)N[C@@H]([C@@H](C)CC)C(=O)N(C)CC(=O)N(C)[C@H]2C/C=C\CCN(C2=O)[C@@H](Cc2ccc(C(F)(F)F)cc2)C(=O)N(C)CC(=O)N[C@@H](CCc2ccc3c(C)cn(C)c3c2)C(=O)N2C[C@H](OCC)C[C@H]2C(=O)NC2(CC(C)(C)C2)C(=O)N(C)[C@@H](C2CCCC2)C(=O)N(C)[C@H](C(=O)N(C)C)CC(=O)N1C [PP2897] | 0.56 |  |  |  |  |  | B (a compound having 3 or more and less than 10 is denoted as B) | A (a compound having 10 or more and less than 20 is denoted as A) |
| CCO[C@@H]1C[C@H]2C(=O)NC3(CCC3)C(=O)N(C)[C@@H](C3CCCC3)C(=O)N(C)[C@H](C(=O)N3CCOCC3)CC(=O)N(C)[C@@H](CC)C(=O)N[C@@H]([C@@H](C)CC)C(=O)N(C)CC(=O)N(C)[C@H]3C[C@@H](C)CCN(C3=O)[C@@H](Cc3ccc(C(F)(F)F)cc3)C(=O)N(C)CC(=O)N[C@@H](CCc3cc(F)c(C(F)(F)F)c(F)c3)C(=O)N2C1 [PP1027] |  | B (a compound having 3 or more and less than 10 is denoted as B) | C (A compound having a KD ratio of 0.1 or more and less than 3 is denoted as C) |  |  | 0.056 |  |  |
| CCC[C@H]1C(=O)N[C@@H]([C@@H](C)CC)C(=O)N(C)CC(=O)N(C)[C@H]2CCCCCN(C2=O)[C@@H](Cc2ccc(C(F)(F)F)cc2)C(=O)N(C)CC(=O)N[C@@H](CCc2cc(F)c(C(F)(F)F)c(F)c2)C(=O)N2C[C@H](OCC)C[C@H]2C(=O)NC2(CCC2)C(=O)N(C)[C@@H](C2CCCC2)C(=O)N(C)[C@H](C(=O)N2CCOCC2)CC(=O)N1C [PP0679] | 0.58 |  |  | B (a compound having 3 or more and less than 10 is denoted as B) | B (a compound having 3 or more and less than 10 is denoted as B) |  |  |  |
| CC[C@H](C)[C@@H]1NC(=O)[C@H](CC(C)C)N(C)C(=O)C[C@@H](C(=O)N2CCOCC2)N(C)C(=O)[C@H](C2CCCC2)N(C)C(=O)C2(CCCC2)NC(=O)[C@@H]2C[C@H](O)CN2C(=O)[C@H](CCc2cc(F)c(C(F)(F)F)c(F)c2)NC(=O)CN(C)C(=O)[C@H](Cc2ccc(C(F)(F)F)cc2)N2CCCC[C@@H](C2=O)N(C)C(=O)CN(C)C1=O [PP0556] | 0.024 |  |  | B (a compound having 3 or more and less than 10 is denoted as B) | C (A compound having a KD ratio of 0.1 or more and less than 3 is denoted as C) |  |  |  |
